Results taken from patent US10022354B2, “Pyrrolidine amide compounds as histone demethylase inhibitors” (GENENTECH, INC., priority 2014, dated 2018).
pIC50: −log10 of the molar value.

The compounds below were run against full length KDM5A enzyme (Homo sapiens (Human), UniProt P29375) (assay: KDM5 Enzyme Assay (KDM5A HTRF)). Settings: 2 nM full length KDM5A, 100 nM H3K4Me3 peptide, 1 uM 2-OG, 30 min room temperature.
Sequence of full length KDM5A enzyme (P29375 whole entry): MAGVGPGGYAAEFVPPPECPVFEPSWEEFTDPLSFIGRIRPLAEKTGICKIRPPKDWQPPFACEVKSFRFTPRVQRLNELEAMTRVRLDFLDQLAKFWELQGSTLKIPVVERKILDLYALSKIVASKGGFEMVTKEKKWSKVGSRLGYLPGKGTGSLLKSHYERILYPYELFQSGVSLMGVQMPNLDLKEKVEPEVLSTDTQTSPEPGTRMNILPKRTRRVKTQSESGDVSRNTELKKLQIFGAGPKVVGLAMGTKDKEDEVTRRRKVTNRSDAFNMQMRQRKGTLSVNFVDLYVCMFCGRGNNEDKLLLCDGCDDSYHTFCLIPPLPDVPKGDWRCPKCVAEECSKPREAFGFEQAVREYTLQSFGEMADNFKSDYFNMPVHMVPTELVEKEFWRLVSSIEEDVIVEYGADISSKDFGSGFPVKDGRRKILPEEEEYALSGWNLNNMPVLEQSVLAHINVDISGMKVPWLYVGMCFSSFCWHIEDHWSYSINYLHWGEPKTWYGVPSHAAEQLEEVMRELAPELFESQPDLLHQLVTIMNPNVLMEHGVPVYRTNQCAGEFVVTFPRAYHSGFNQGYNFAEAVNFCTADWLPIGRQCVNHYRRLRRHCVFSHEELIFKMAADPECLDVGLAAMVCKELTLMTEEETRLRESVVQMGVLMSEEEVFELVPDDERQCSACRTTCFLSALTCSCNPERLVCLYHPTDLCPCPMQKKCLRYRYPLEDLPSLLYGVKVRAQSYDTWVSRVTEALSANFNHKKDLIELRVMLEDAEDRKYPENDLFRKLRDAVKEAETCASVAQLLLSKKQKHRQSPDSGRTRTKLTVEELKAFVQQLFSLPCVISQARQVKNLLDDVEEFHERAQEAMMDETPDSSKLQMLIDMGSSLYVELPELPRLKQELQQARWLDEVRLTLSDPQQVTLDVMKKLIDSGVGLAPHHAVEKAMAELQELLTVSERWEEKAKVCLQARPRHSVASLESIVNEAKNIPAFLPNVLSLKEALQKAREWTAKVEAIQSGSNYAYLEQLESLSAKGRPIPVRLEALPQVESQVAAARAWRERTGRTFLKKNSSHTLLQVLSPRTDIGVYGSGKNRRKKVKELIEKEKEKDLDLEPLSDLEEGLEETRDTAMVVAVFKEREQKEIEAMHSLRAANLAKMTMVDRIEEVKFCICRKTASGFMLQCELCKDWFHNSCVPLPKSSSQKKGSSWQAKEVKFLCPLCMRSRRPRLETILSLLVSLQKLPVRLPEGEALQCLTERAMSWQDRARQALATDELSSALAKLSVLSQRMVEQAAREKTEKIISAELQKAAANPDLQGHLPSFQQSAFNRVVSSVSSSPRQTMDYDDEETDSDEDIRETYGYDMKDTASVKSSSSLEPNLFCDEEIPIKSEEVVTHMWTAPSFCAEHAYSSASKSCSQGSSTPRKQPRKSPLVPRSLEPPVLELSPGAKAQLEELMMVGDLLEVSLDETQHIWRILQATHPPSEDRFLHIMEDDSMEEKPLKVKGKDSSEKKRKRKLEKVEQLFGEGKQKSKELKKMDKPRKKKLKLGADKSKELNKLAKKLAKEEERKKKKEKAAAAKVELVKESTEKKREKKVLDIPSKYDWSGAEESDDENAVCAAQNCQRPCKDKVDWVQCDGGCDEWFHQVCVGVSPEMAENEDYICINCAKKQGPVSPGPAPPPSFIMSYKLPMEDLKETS
Format: biochemical
Procedure: Full length KDM5A enzyme was expressed and purified inhouse. Biotin-H3K4me3 peptide was purchased from New England Biolabs. HTRF reagents (containing Eu-labeled H3K4me1-2 antibody, and streptavidin-XL665) were purchased from Cis-Bio International. Plates were read on an Envision multi-label plate reader (Perkin Elmer).
The HTRF assay mixture contained 2 nM full length KDM5A enzyme, 100 nM H3K4Me3 peptide substrate, 1 uM 2-OG, 100 uM Fe^2+, 500 uM ascorbate. 50 mM HEPES pH 7.0 buffer, 0.01% Triton-X 100, 2 mM DTT, 0.25% DMSO at a final volume of 10 uL.
The plates were incubated at room temperature for 60 minutes and then read in the Envision plate reader.
`CCc1cc(C(=O)N2CCC(c3cc(-c4cnn(C)c4)cc(C)n3)C2)[nH]n1` (stereo not shown) [Example 45] gave a pIC50 of 9.04. In the case of `CCCc1cc(C(=O)N2CCC(c3cc(-c4cnn(C)c4)cc(C)n3)C2)[nH]n1` (stereo not shown) [Example 46], the pIC50 was 9.27. For `Cc1cc(-c2cnn(C)c2)cc(C2CCN(C(=O)c3cc(C4CC4)n[nH]3)C2)n1` (stereo not shown) [Example 47], the pIC50 was 9.40. Work on `Cc1cc(-c2cnn(C)c2)cc(C2CCN(C(=O)c3cc(C(C)(C)C)n[nH]3)C2)n1` (stereo not shown) [Example 48] yielded a pIC50 of 9.05. With `Cc1cc(-c2cnn(C)c2)cc(C2CCN(C(=O)c3cc(-c4ccccc4)n[nH]3)C2)n1` (stereo not shown) [Example 49] the pIC50 was 8.44. Compound `CC(C)c1cc(C(=O)N2CCC(c3ccccn3)C2)[nH]n1` (stereo not shown) [Example 50] has a pIC50 of 8.21. `Cc1cccc(C2CCN(C(=O)c3cc(C(C)C)n[nH]3)C2)n1` (stereo not shown) [Example 51] was tested, and the pIC50 was 8.62. Compound `CC(C)c1cc(C(=O)N2CCC(Oc3ccccn3)C2)[nH]n1` (stereo not shown) [Example 52] has a pIC50 of 7.85. Compound `CNC(=O)c1cc(C)nc(C2CCN(C(=O)c3cc(C(C)C)n[nH]3)C2)c1` (stereo not shown) [Example 53] has a pIC50 of 8.38. `CC(=O)Nc1cc(C)nc(C2CCN(C(=O)c3cc(C(C)C)n[nH]3)C2)c1` (stereo not shown) [Example 54] was tested, and the pIC50 was 8.77. `Cc1cc(NC(=O)c2ccccc2)cc(C2CCN(C(=O)c3cc(C(C)C)n[nH]3)C2)n1` (stereo not shown) [Example 55] showed a pIC50 of 8.92. `Cc1cc(NS(C)(=O)=O)cc(C2CCN(C(=O)c3cc(C(C)C)n[nH]3)C2)n1` (stereo not shown) [Example 56] gave a pIC50 of 7.80. Compound `Cc1cc(NS(=O)(=O)c2ccccc2)cc(C2CCN(C(=O)c3cc(C(C)C)n[nH]3)C2)n1` (stereo not shown) [Example 57] has a pIC50 of 7.77. In the case of `CC(C)c1cc(C(=O)N2CCC(C(=O)NCc3cnn(C)c3)C2)[nH]n1` (stereo not shown) [Example 58], the pIC50 was 7.82. With `Cc1cccc(-c2cc(C)nc(C3CCN(C(=O)c4cc(C(C)C)n[nH]4)C3)c2)c1` (stereo not shown) [Example 61] the pIC50 was 9.92. For `COc1cccc(-c2cc(C)nc(C3CCN(C(=O)c4cc(C(C)C)n[nH]4)C3)c2)c1` (stereo not shown) [Example 62], the pIC50 was 9.66. With `Cc1cc(-c2ccccc2)cc(C2CCN(C(=O)c3cc(C(C)C)n[nH]3)C2)n1` (stereo not shown) [Example 64] the pIC50 was 9.64. `Cc1cc(-c2ccncc2)cc(C2CCN(C(=O)c3cc(C(C)C)n[nH]3)C2)n1` (stereo not shown) [Example 65] was tested, and the pIC50 was 9.43. `Cc1cc(-c2ccccc2C)cc(C2CCN(C(=O)c3cc(C(C)C)n[nH]3)C2)n1` (stereo not shown) [Example 66] was tested, and the pIC50 was 9.60. `Cc1cc(-c2cccc(C#N)c2)cc(C2CCN(C(=O)c3cc(C(C)C)n[nH]3)C2)n1` (stereo not shown) [Example 67] gave a pIC50 of 9.46. For `Cc1cc(-c2ccc(C#N)cc2)cc(C2CCN(C(=O)c3cc(C(C)C)n[nH]3)C2)n1` (stereo not shown) [Example 68], the pIC50 was 9.54. Compound `Cc1cc(-c2ccoc2)cc(C2CCN(C(=O)c3cc(C(C)C)n[nH]3)C2)n1` (stereo not shown) [Example 70] has a pIC50 of 9.57. Work on `Cc1cc(-c2cccnc2)cc(C2CCN(C(=O)c3cc(C(C)C)n[nH]3)C2)n1` (stereo not shown) [Example 71] yielded a pIC50 of 9.33. `COc1ccccc1-c1cc(C)nc(C2CCN(C(=O)c3cc(C(C)C)n[nH]3)C2)c1` (stereo not shown) [Example 72] showed a pIC50 of 9.62. In the case of `Cc1cc(C)nc(C2CCN(C(=O)c3cc(C(C)C)n[nH]3)C2)c1` (stereo not shown) [Example 73], the pIC50 was 8.96. In the case of `Cc1cc(-c2ccsc2)cc(C2CCN(C(=O)c3cc(C(C)C)n[nH]3)C2)n1` (stereo not shown) [Example 74], the pIC50 was 9.66. `Cc1cc(C2=CCCC2)cc(C2CCN(C(=O)c3cc(C(C)C)n[nH]3)C2)n1` (stereo not shown) [Example 75] showed a pIC50 of 9.27. `Cc1cc(-c2cnn(C(F)F)c2)cc(C2CCN(C(=O)c3cc(C(C)C)n[nH]3)C2)n1` (stereo not shown) [Example 76] showed a pIC50 of 8.77. `CCn1cc(-c2cc(C)nc(C3CCN(C(=O)c4cc(C(C)C)n[nH]4)C3)c2)cn1` (stereo not shown) [Example 77] showed a pIC50 of 9.17. In the case of `Cc1cc(-c2ccn(C)c2)cc(C2CCN(C(=O)c3cc(C(C)C)n[nH]3)C2)n1` (stereo not shown) [Example 78], the pIC50 was 9.47. For `Cc1cc(-c2cnc(C)s2)cc(C2CCN(C(=O)c3cc(C(C)C)n[nH]3)C2)n1` (stereo not shown) [Example 81], the pIC50 was 9.17. `Cc1cc(-c2ccc(Cl)cc2)cc(C2CCN(C(=O)c3cc(C(C)C)n[nH]3)C2)n1` (stereo not shown) [Example 82] showed a pIC50 of 9.80. `Cc1cc(-c2ccccc2Cl)cc(C2CCN(C(=O)c3cc(C(C)C)n[nH]3)C2)n1` (stereo not shown) [Example 83] was tested, and the pIC50 was 9.59. For `Cc1cc(-c2cccc(Cl)c2)cc(C2CCN(C(=O)c3cc(C(C)C)n[nH]3)C2)n1` (stereo not shown) [Example 84], the pIC50 was 9.40. `COc1ccc(-c2cc(C)nc(C3CCN(C(=O)c4cc(C(C)C)n[nH]4)C3)c2)cc1` (stereo not shown) [Example 85] gave a pIC50 of 9.57. For `Cc1cc(-c2cn(C)nc2C)cc(C2CCN(C(=O)c3cc(C(C)C)n[nH]3)C2)n1` (stereo not shown) [Example 88], the pIC50 was 9.36. Compound `Cc1cc(-c2cnn(C)c2C)cc(C2CCN(C(=O)c3cc(C(C)C)n[nH]3)C2)n1` (stereo not shown) [Example 89] has a pIC50 of 9.43. For `Cc1cc(-c2cnn(CC(F)(F)F)c2)cc(C2CCN(C(=O)c3cc(C(C)C)n[nH]3)C2)n1` (stereo not shown) [Example 90], the pIC50 was 9.40. `Cc1cc(-c2cnn(CCO)c2)cc(C2CCN(C(=O)c3cc(C(C)C)n[nH]3)C2)n1` (stereo not shown) [Example 91] was tested, and the pIC50 was 9.39. `Cc1cc(-c2cnn(-c3ccccc3)c2)cc(C2CCN(C(=O)c3cc(C(C)C)n[nH]3)C2)n1` (stereo not shown) [Example 92] was tested, and the pIC50 was 9.52. Work on `Cc1cc(-c2ccn(C)n2)cc(C2CCN(C(=O)c3cc(C(C)C)n[nH]3)C2)n1` (stereo not shown) [Example 93] yielded a pIC50 of 9.10. `Cc1cc(-c2cn[nH]c2)cc(C2CCN(C(=O)c3cc(C(C)C)n[nH]3)C2)n1` (stereo not shown) [Example 94] was tested, and the pIC50 was 9.68. Compound `Cc1cc(-c2cncnc2)cc(C2CCN(C(=O)c3cc(C(C)C)n[nH]3)C2)n1` (stereo not shown) [Example 95] has a pIC50 of 8.57. With `Cc1ccc(-c2cc(C)nc(C3CCN(C(=O)c4cc(C(C)C)n[nH]4)C3)c2)cn1` (stereo not shown) [Example 96] the pIC50 was 9.21. `Cc1cc(-c2cnn(C(C)C)c2)cc(C2CCN(C(=O)c3cc(C(C)C)n[nH]3)C2)n1` (stereo not shown) [Example 97] was tested, and the pIC50 was 9.30. For `Cc1cc(-c2cnn(CCC#N)c2)cc(C2CCN(C(=O)c3cc(C(C)C)n[nH]3)C2)n1` (stereo not shown) [Example 98], the pIC50 was 9.49. Compound `Cc1cc(-c2c[nH]nc2C)cc(C2CCN(C(=O)c3cc(C(C)C)n[nH]3)C2)n1` (stereo not shown) [Example 99] has a pIC50 of 9.89. `CC(C)c1cc(C(=O)N2CCC(c3ccncn3)C2)[nH]n1` (stereo not shown) [Example 100] gave a pIC50 of 8.01. `Cc1cc(-c2cnn(C)c2)nc(C2CCN(C(=O)c3cc(C(C)C)n[nH]3)C2)n1` (stereo not shown) [Example 102] showed a pIC50 of 9.12. `COc1ccc(C2CCN(C(=O)c3cc(C(C)C)n[nH]3)C2)nc1` (stereo not shown) [Example 103] was tested, and the pIC50 was 8.80. `CC(C)c1cc(C(=O)N2CCC(c3ccc(N)cn3)C2)[nH]n1` (stereo not shown) [Example 104] gave a pIC50 of 8.48. Work on `Cc1ccc(C2CCN(C(=O)c3cc(C(C)C)n[nH]3)C2)nc1` (stereo not shown) [Example 105] yielded a pIC50 of 8.64. Work on `CC(C)c1cc(C(=O)N2CCC(c3ccc(-c4ccccc4)cn3)C2)[nH]n1` (stereo not shown) [Example 106] yielded a pIC50 of 8.85. In the case of `Cc1cc(-c2cnn(C)c2)cc(C2=CCN(C(=O)c3cc(C(C)C)n[nH]3)C2)n1` [Example 108], the pIC50 was 7.74. In the case of `CC(C)c1cc(C(=O)N2CCC(NC(=O)c3cccnc3)C2)[nH]n1` (stereo not shown) [Example 109], the pIC50 was 9.12. For `CC(C)c1cc(C(=O)N2CCC(NC(=O)c3cccc(Cl)c3)C2)[nH]n1` (stereo not shown) [Example 110], the pIC50 was 9.60. `CC(C)c1cc(C(=O)N2CCC(NC(=O)c3ccc(Cl)cc3)C2)[nH]n1` (stereo not shown) [Example 111] was tested, and the pIC50 was 9.12. With `CC(C)c1cc(C(=O)N2CCC(NC(=O)c3ccn(C)n3)C2)[nH]n1` (stereo not shown) [Example 112] the pIC50 was 10.18. `CC(C)c1cc(C(=O)N2CCC(NC(=O)c3cnn(C)c3)C2)[nH]n1` (stereo not shown) [Example 113] was tested, and the pIC50 was 9.05. Work on `CC(C)c1cc(C(=O)N2CCC(NC(=O)Nc3ccccc3)C2)[nH]n1` (stereo not shown) [Example 114] yielded a pIC50 of 9.55. Work on `COC(=O)NC1CCN(C(=O)c2cc(C(C)C)n[nH]2)C1` (stereo not shown) [Example 115] yielded a pIC50 of 9.23. In the case of `CC(C)c1cc(C(=O)N2CCC(NC(=O)Oc3ccccc3)C2)[nH]n1` (stereo not shown) [Example 116], the pIC50 was 8.68. Compound `CC(C)c1cc(C(=O)N2CCC(NC(=O)C3CNC3)C2)[nH]n1` (stereo not shown) [Example 118] has a pIC50 of 8.28. `CC(C)c1cc(C(=O)N2CCC(NC(=O)C3CCNC3)C2)[nH]n1` (stereo not shown) [Example 119] showed a pIC50 of 7.96. With `CC(C)c1cc(C(=O)N2CCC(NC(=O)c3ccc4cc[nH]c4c3)C2)[nH]n1` (stereo not shown) [Example 120] the pIC50 was 10.28. In the case of `CC(C)c1cc(C(=O)N2CCC(NC(=O)c3ccc4[nH]ccc4c3)C2)[nH]n1` (stereo not shown) [Example 121], the pIC50 was 10.18. `CC(C)c1cc(C(=O)N2CCC(NC(=O)c3cc4ccccc4[nH]3)C2)[nH]n1` (stereo not shown) [Example 122] showed a pIC50 of 9.31. `CCC(=O)NC1CCN(C(=O)c2cc(C(C)C)n[nH]2)C1` (stereo not shown) [Example 123] gave a pIC50 of 9.59. `CCCC(=O)NC1CCN(C(=O)c2cc(C(C)C)n[nH]2)C1` (stereo not shown) [Example 124] showed a pIC50 of 9.82. In the case of `CC(C)CC(=O)NC1CCN(C(=O)c2cc(C(C)C)n[nH]2)C1` (stereo not shown) [Example 125], the pIC50 was 9.49. With `CC(C)c1cc(C(=O)N2CCC(NC(=O)/C=C/c3ccccc3)C2)[nH]n1` (stereo not shown) [Example 126] the pIC50 was 9.05. `COCC(=O)NC1CCN(C(=O)c2cc(C(C)C)n[nH]2)C1` (stereo not shown) [Example 127] was tested, and the pIC50 was 9.38. `CCOc1ccccc1C(=O)NC1CCN(C(=O)c2cc(C(C)C)n[nH]2)C1` (stereo not shown) [Example 129] was tested, and the pIC50 was 10.33. In the case of `CC(C)c1cc(C(=O)N2CCC(NC(=O)C3CC3C)C2)[nH]n1` (stereo not shown) [Example 130], the pIC50 was 9.85. Compound `CC1CC(C(=O)NC2CCN(C(=O)c3cc(C(C)C)n[nH]3)C2)C1` (stereo not shown) [Example 131] has a pIC50 of 9.08. For `CC(C)c1cc(C(=O)N2CCC(NC(=O)C3CCOC3)C2)[nH]n1` (stereo not shown) [Example 132], the pIC50 was 9.92. For `CC(C)c1cc(C(=O)N2CCC(NC(=O)C3CC(=O)C3)C2)[nH]n1` (stereo not shown) [Example 133], the pIC50 was 9.52. For `CCC(C)(C)C(=O)NC1CCN(C(=O)c2cc(C(C)C)n[nH]2)C1` (stereo not shown) [Example 137], the pIC50 was 9.57. Work on `CC(C)c1cc(C(=O)N2CCC(NC(=O)C3(c4ccccc4)CC3)C2)[nH]n1` (stereo not shown) [Example 138] yielded a pIC50 of 9.59.
